Assay results from patent publication US5298414A (priority 1989, dated 1994).
Entries after “also recorded” stand apart in the source; their conditions may differ. Read-outs that look alike come from different tables or passages of the source.

Columns and labels:
[1] = target: T1, morphine dehydrogenase (MDH) (Pseudomonas putida, UniProt Q02198); assay: Cofactor requirement of MDH; format: biochemical, Pseudomonas putida MlO
[2] = target: T1, morphine dehydrogenase (MDH); assay: Substrate specificity of morphine dehydrogenase (Example 4); format: biochemical, Pseudomonas putida MlO; conditions: 0.35 μg purified enzyme, pH 9.5
[3] = target: T1, morphine dehydrogenase (MDH); assay: biochemical; format: biochemical, Pseudomonas putida MlO; conditions: for (b) Relative activity: 16 h at 4° C. then 10 min at 30° C., no addition gives 16
[4] = target: T1, morphine dehydrogenase (MDH); assay: Non-oxidation of steroids by morphine dehydrogenase (Example 2 standard assay); format: biochemical, Pseudomonas putida MlO; conditions: morphine replaced by the steroid in the standard assay
[5] = test system: acetylmorphine carboxylesterase (AMCE); assay: Substrate specificity of the AMCE (HPLC); format: biochemical, Rhodococcus Hl; conditions: substrate 1.0 mM, purified AMCE 5 U, potassium phosphate buffer pH 7.5, 30° C.
[6] = target: T1, morphine dehydrogenase (MDH); format: biochemical, Pseudomonas putida MlO
[7] = test system: washed cells of P. putida MlO; format: cell-based, Pseudomonas putida MlO
[8] = 10 min, read-out: (a) Relative activity
[9] = 16 h, read-out: (b) Relative activity

T1 sequence (Q02198 whole entry): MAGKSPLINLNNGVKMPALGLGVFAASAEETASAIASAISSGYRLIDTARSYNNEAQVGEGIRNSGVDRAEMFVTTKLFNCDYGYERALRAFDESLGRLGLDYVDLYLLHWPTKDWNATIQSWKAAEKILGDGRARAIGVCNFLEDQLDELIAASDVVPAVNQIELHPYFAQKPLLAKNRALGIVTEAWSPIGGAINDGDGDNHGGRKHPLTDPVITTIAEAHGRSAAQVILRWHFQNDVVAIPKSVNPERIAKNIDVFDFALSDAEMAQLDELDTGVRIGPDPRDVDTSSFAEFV

## 3-acetylpyridine ADP
[1]
  operability as cofactor for MDH: operable

## O=C(O)C(O)c1ccccc1 (racemic) [D,L-mandelic acid]
[2]; final concentration 10 Mm
  activity relative to 3 mM morphine: zero

## O[C@H](CS)[C@H](O)CS (racemic) [Dithiothreitol]
[3]; [8]
  activity at 1000 µM: 97%
[3]; [9]
  activity at 1000 µM: 64%

## C[C@]12CC[C@@H](O)C[C@@H]1CC[C@@H]1[C@@H]2CC[C@]2(C)C(=O)CC[C@@H]12 (stereo in doubt) [androsterone]
[4]
  steroid dehydrogenase activity of MDH: No steroid dehydrogenase activity was detected
[2]; final concentration 10 Mm
  activity relative to 3 mM morphine: zero

## c1cnc2c(c1)ccc1cccnc12 [1,10-Phenanthroline]
[3]; [8]
  activity at 50 µM: 76%
  activity at 500 µM: 61%
[3]; [9]
  activity at 500 µM: 14%

## c1ccc(-c2ccccn2)nc1 [2,2'-Dipyridyl]
[3]; [8]
  activity at 50 µM: 75%
  activity at 500 µM: 67%
[3]; [9]
  activity at 500 µM: 9%

## CC(=O)Oc1ccc2c3c1O[C@H]1[C@@H](O)C=C[C@H]4[C@@H](C2)N(C)CC[C@@]341 [3-acetylmorphine]
[5]
  time taken to reduce the substrate concentration by 20%: 2 min

## CC(=O)O[C@H]1C=C[C@H]2[C@H]3Cc4ccc(O)c5c4[C@@]2(CCN3C)[C@H]1O5 [6-acetylmorphine]
[6]; pH 10
  ability to serve as MDH substrate: completely inactive; also recorded: no activity
[5]
  time taken to reduce the substrate concentration by 20%: 240 min
[2]; alkaloid substrates 3 mM
  activity relative to 3 mM morphine: zero

## Oc1cccc2cccnc12 [8-Hydroxyquinoline]
[3]; purified mdh, 10 min, 50 µM
  (a) Relative activity: 100%

## O=S(=O)([O-])[O-].[Cu+2] [CuSO4]
[3]; reagent 0.1 mM, 10 min at room temperature, 100% = 67 U/mg
  (a) Relative activity: 34%
[3]; reagent 0.1 mM
  (b) Relative activity: 5%

## O=C(O)CN(CCN(CC(=O)O)CC(=O)O)CC(=O)O [EDTA]
[3]; [8]
  activity at 500 µM: 104%
[3]; [9]
  activity at 500 µM: 18%

## O=C(O)CI [Iodoacetate]
[3]; [8]
  activity at 100 µM: 61%
  activity at 1000 µM: 58%
  activity at 10000 µM: 54%
[3]; [9]
  activity at 10000 µM: 30%

## OCCS [Mercaptoethanol]
[3]; [8]
  activity at 1000 µM: 100%
[3]; [9]
  activity at 1000 µM: 73%

## CCN1C(=O)C=CC1=O [N-Ethylmaleimide]
[3]; [8]
  activity at 50 µM: 100%
  activity at 1000 µM: 58%
[3]; [9]
  activity at 1000 µM: 23%

## NC(=O)c1ccc[n+]([C@@H]2O[C@H](COP(=O)([O-])OP(=O)(O)OC[C@H]3O[C@@H](n4cnc5c(N)ncnc54)[C@H](OP(=O)(O)O)[C@@H]3O)[C@@H](O)[C@H]2O)c1 [NADP^+, nicotinamide adenine dinucleotide phosphate]
[1]
  operability as cofactor for MDH: absolute requirement

## NC(=O)c1ccc[n+]([C@@H]2O[C@H](COP(=O)([O-])OP(=O)(O)OC[C@H]3O[C@@H](n4cnc5c(N)ncnc54)[C@H](O)[C@@H]3O)[C@@H](O)[C@H]2O)c1 [NAD^+]
[1]
  operability as cofactor for MDH: shown not to be a substrate; also recorded: have not been found to be operable

## OCc1ccccc1 [benzyl alcohol]
[2]; alcohol substrates 50 mM
  activity relative to 3 mM morphine: zero

## CCC(C)O (stereo not drawn) [butan-2-ol]
[2]; alcohol substrates 50 mM
  activity relative to 3 mM morphine: zero

## COc1ccc2c3c1O[C@H]1[C@@H](O)C=C[C@H]4[C@@H](C2)N(C)CC[C@@]341 [codeine]
[6]; pH 10
  activity relative to morphine: 1.7 times that of morphine
[7]
  metabolism by washed cells grown on heroin: readily metabolised
[2]; alkaloid substrates 3 mM
  activity relative to 3 mM morphine: 120%

## COc1ccc2c3c1O[C@H]1C(=O)C=C[C@H]4[C@@H](C2)N(C)CC[C@]314 [codeinone]
[6]
  reverse direction reaction with NADPH: catalysed the oxidation of NADPH
[6]; pH 10
  ability to serve as MDH substrate: completely inactive

## OC1CCCCC1 [cyclohexanol]
[2]; alcohol substrates 50 mM
  activity relative to 3 mM morphine: zero

## COc1ccc2c3c1O[C@H]1[C@@H](O)CC[C@H]4[C@@H](C2)N(C)CC[C@@]341 [dihydrocodeine]
[6]; pH 10
  ability to serve as MDH substrate: completely inactive; also recorded: did not show any activity
[2]; alkaloid substrates 3 mM
  activity relative to 3 mM morphine: 7.1%

## CCO [ethanol]
[6]
  ability to serve as MDH substrate: negative result
[6]; pH 10
  ability to serve as MDH substrate: completely inactive; also recorded: does not oxidise
[2]; alcohol substrates 50 mM
  activity relative to 3 mM morphine: zero

## CCOc1ccc2c3c1O[C@H]1[C@@H](O)C=C[C@H]4[C@@H](C2)N(C)CC[C@@]341 [ethylmorphine]
[6]; pH 10
  activity relative to morphine: 1.2 times that of morphine
[7]
  metabolism by washed cells grown on heroin: readily metabolised

## CN1CC[C@]23c4c5ccc(O[C@@H]6O[C@H](C(=O)O)[C@@H](O)[C@H](O)[C@H]6O)c4O[C@H]2[C@@H](O)C=C[C@H]3[C@H]1C5 [morphine glucuronide]
[6]; pH 10
  ability to serve as MDH substrate: completely inactive; also recorded: Inactivity

## CN1CC[C@]23c4c5ccc(O)c4O[C@H]2[C@@H](O)C=C[C@H]3[C@H]1C5 [morphine]
[6]; pH 10
  specific activity as MDH substrate: 0.002 μmol/min./mg. protein
[2]; 3 mM substrate
  dehydrogenase activity: 0.0252 μmol NADPH/min

## COc1ccc2c3c1O[C@H]1C(=O)CC[C@@]4(O)[C@@H](C2)N(C)CC[C@]314 [oxycodone]
[6]; pH 10
  ability to serve as MDH substrate: completely inactive; also recorded: no activity

## O=C(O)c1cc[c]([Hg+])cc1.[OH-] [p-Hydroxymercuribenzoate]
[3]; reagent 0.01 mM, 10 min at room temperature, 100% = 67 U/mg
  (a) Relative activity: 0%
[3]; reagent 0.01 mM
  (b) Relative activity: 0%
[3]; reagent 0.01 mM, incubation (a)
  activity recovered after incubation with 3 mM dithiothreitol for 10 min: 45%
[3]; reagent 0.01 mM, incubation (b)
  activity recovered after incubation with 3 mM dithiothreitol for 10 min: 23%

## CN1CC[C@]23c4c5ccc(OCCN6CCOCC6)c4O[C@H]2[C@@H](O)C=C[C@H]3[C@H]1C5 [pholcodeine]
[6]; pH 10
  ability to serve as MDH substrate: completely inactive; also recorded: Inactivity

## CC(C)O [propan-2-ol]
[2]; alcohol substrates 50 mM
  activity relative to 3 mM morphine: zero

## CCCO [propanol]
[2]; alcohol substrates 50 mM
  activity relative to 3 mM morphine: zero

## C[C@]12CC[C@H]3[C@@H](CCC4=CC(=O)CC[C@@]43C)[C@@H]1CC[C@@H]2O [testosterone]
[4]
  steroid dehydrogenase activity of MDH: No steroid dehydrogenase activity was detected
[2]; final concentration 10 Mm
  activity relative to 3 mM morphine: zero

## COC1=CC=C2[C@H]3Cc4ccc(OC)c5c4[C@@]2(CCN3C)[C@H]1O5 [thebaine]
[6]; pH 10
  ability to serve as MDH substrate: completely inactive
[7]
  metabolism by washed cells grown on heroin: not degraded at all

## nicotinamide hypoxanthine diphosphate
[1]
  operability as cofactor for MDH: have not been found to be operable
